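1) Cells in 96-well plates. 2) Compound, 48 h, 5 concentrations. 3) Linear interpolation between surrounding doses. 4) Unreached endpoint = highest concentration. The concentration for full growth arrest is given as TGI.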
Key:
Assay in all cases: growth of human tumour cells (NCI), 48 h
786-0 renal = test system: 786-0 renal
A498 renal = test system: A498 renal
A549 NSCLC = test system: A549 NSCLC
ACHN renal = test system: ACHN renal
BT-549 breast = test system: BT-549 breast
COLO 205 colon = test system: COLO 205 colon
EKVX NSCLC = test system: EKVX NSCLC
HCC-2998 colon = test system: HCC-2998 colon
HCT-116 colon = test system: HCT-116 colon
HCT-15 colon = test system: HCT-15 colon
HL-60(TB) leukemia = test system: HL-60(TB) leukemia
HOP-62 NSCLC = test system: HOP-62 NSCLC
HOP-92 NSCLC = test system: HOP-92 NSCLC
HS 578T breast = test system: HS 578T breast
HT29 colon = test system: HT29 colon
IGROV1 ovarian = test system: IGROV1 ovarian
K-562 leukemia = test system: K-562 leukemia
KM12 colon = test system: KM12 colon
M14 melanoma = test system: M14 melanoma
MALME-3M melanoma = test system: MALME-3M melanoma
MCF7 breast = test system: MCF7 breast
MDA-MB-231 breast = test system: MDA-MB-231 breast
MDA-N = test system: MDA-N
MOLT-4 leukemia = test system: MOLT-4 leukemia
NCI-H226 lung = test system: NCI-H226 lung
NCI-H23 lung = test system: NCI-H23 lung
NCI-H460 lung = test system: NCI-H460 lung
OVCAR-5 ovarian = test system: OVCAR-5 ovarian
OVCAR-8 ovarian = test system: OVCAR-8 ovarian
PC-3 prostate = test system: PC-3 prostate
RPMI-8226 leukemia = test system: RPMI-8226 leukemia
RXF 393 renal = test system: RXF 393 renal
SK-MEL-2 melanoma = test system: SK-MEL-2 melanoma
SK-MEL-28 melanoma = test system: SK-MEL-28 melanoma
SK-MEL-5 melanoma = test system: SK-MEL-5 melanoma
SN12C renal = test system: SN12C renal
SNB-19 CNS = test system: SNB-19 CNS
SNB-75 CNS = test system: SNB-75 CNS
SR leukemia = test system: SR leukemia
SW-620 colon = test system: SW-620 colon
TK-10 renal = test system: TK-10 renal
U251 CNS = test system: U251 CNS
UACC-257 melanoma = test system: UACC-257 melanoma
UACC-62 melanoma = test system: UACC-62 melanoma
UO-31 renal = test system: UO-31 renal
CCRF-CEM leukemia = test system: CCRF-CEM leukemia
DU-145 prostate = test system: DU-145 prostate
LOX IMVI melanoma = test system: LOX IMVI melanoma
MDA-MB-435 = test system: MDA-MB-435
NCI-H522 lung = test system: NCI-H522 lung
NCI/ADR-RES ovarian = test system: NCI/ADR-RES ovarian
OVCAR-3 ovarian = test system: OVCAR-3 ovarian
OVCAR-4 ovarian = test system: OVCAR-4 ovarian
SF-268 CNS = test system: SF-268 CNS
SF-295 CNS = test system: SF-295 CNS
SF-539 CNS = test system: SF-539 CNS
SK-OV-3 ovarian = test system: SK-OV-3 ovarian

Measured: TGI

CCOC(=O)C1(C)CCCc2sc(N)c(C#N)c21 (centres undefined)
not listed: CCRF-CEM leukemia | DU-145 prostate | LOX IMVI melanoma | MDA-MB-435 | NCI-H522 lung | NCI/ADR-RES ovarian | OVCAR-3 ovarian | OVCAR-4 ovarian | SF-268 CNS | SF-295 CNS | SF-539 CNS | SK-OV-3 ovarian
> 100 µM: all other assays above

COc1cc(/C=C2\CCC/C(=C\c3ccc(OC(=O)CCCCC4CCSS4)c(OC)c3)C2=O)ccc1OC(=O)CCCCC1CCSS1 (centres undefined)
not listed: HCC-2998 colon | HOP-92 NSCLC | SR leukemia
> 100 µM: all other assays above
